Assay results: US11390661B2, “HCMV entry inhibitors” (priority 2016, dated 2022)

Columns and labels:
HCMV strain TB40/E [1] = test: Inhibition of infection of fibroblasts (HFFs), IE antigen immunofluorescence; format: cell-based, Human cytomegalovirus
Protocol: (§1) For testing the inhibitory effect of antivirals or fusion proteins on HCMV, the respective inhibitors were diluted in MEM and mixed with infectious supernatants, the mixtures were incubated for 2 h at 37° C. before addition to the cells. For fibroblast infection the virus-inhibitor mixture was incubated on the cells for about 24 h. If endothelial cells were included in the experiment, all cells were supplied with their respective maintenance media after 2 h, and further incubated for 22 h.
(§2) Infection efficiencies were determined by immunofluorescence staining for viral proteins. For fixation and permeabilization the cells were incubated with 80% acetone for 5 min. For HCMV infected cells the immediate early proteins pUL122/123 were detected with a mouse monoclonal (clone E13, Argene) and visualized using a Cy3 conjugated goat anti-mouse secondary antibody (Jackson Immuno Research). HSV infected cultures were stained 6 h post infection for ICP0 using a mouse monoclonal (clone 11060, Santa Cruz) and goat anti-mouse AF488 (life technologies). DAPI was used to locate nuclei. Infection rates were determined by counting the number of cell nuclei positive for the respective viral protein, as well as the total number of nuclei per image. For each condition three images were evaluated.
To test this, the inventors pre-incubated cell free preparations of HCMV strain TB40/E with variable concentrations of soluble PDGFR-alpha-Fc chimeras for 2 h before adding them to HFFs and HECs. After 2 h the virus was removed and replaced with the appropriate cell culture medium for an overnight incubation. Cultures were then fixed, and the fraction of infected cells was determined by indirect immunofluorescence staining of viral IE antigens.
Cell free preparations of TB40/E were pre-incubated with increasing concentrations of the various Fc chimeras for 2 h. HFFs were then incubated with the mixtures for 2 h followed by a medium exchange and an overnight incubation.

HCMV strain TB40/E [2] = test: Inhibition of infection of endothelial cells (HECs), IE antigen immunofluorescence; format: cell-based, Human cytomegalovirus
Protocol: as §1
as §2, with “evaluated. […]” for “evaluated.”

HCMV TB40E = test: Post adsorption inhibition on HFFs with or without PEG fusion; format: cell-based, Human cytomegalovirus
Protocol: For the analysis of post adsorption inhibition, HFFs were seeded at a density of 40,000 per well on IBIDI plates and incubated for 1 day before infection. Infectious supernatants of TB40E which were produced within 24 hours were cleared by centrifugation. Two identical plates were treated as follows: Cells and virus dilutions were precooled on ice for 15 min before attachment of the virus was allowed on ice for 1 h. The virus containing medium was exchanged by pre-cooled MEM with or without 200 ng/ml PDGFR-alpha-Fc. After 2 h incubation of the inhibitor with the cells on ice, one plate was directly shifted to 37° C., whereas the other cells were treated with pre-warmed 50% PEG (Roche) for 30 sec. The PEG was washed off by five times washing with pre-warmed PBS. Supplied with pre-warmed MEM containing again 200 ng/ml PDGFR-alpha-Fc, the cells were then incubated at 37° C. After 2 h incubation the medium was exchanged on PEG-treated and untreated cells and infection was allowed to proceed for 24 h before infection efficiencies were assessed by immediate early staining. Efficient PEG fusion was controlled visually by detection of syncytia.
HCMV virus particles were adsorbed to HFFs for 1 h on ice. The virus containing medium was then exchanged by medium containing PDGFR-alpha-Fc at a concentration of 200 ng/ml. […]

[3] = system: HCMV wild type or UL74stop particles; test: Staining of wild type and UL74stop (gO deficient) particles with Fc-fusion protein; format: binding, Human cytomegalovirus; settings: 500 ng/ml, 2 h
Protocol: To assess the binding of Fc-Proteins to virus particles, HFFs were seeded at a density of 40,000 cells per well on IBIDI plates 1 day prior to infection. Virus preparations were pre-incubated with Fc-fusion proteins at a final concentration of 500 ng/ml for 2 h at 37° C. The virus/Fc-protein mixtures were incubated with the cells for 1.5 h on ice. Before fixation with 80% acetone, the cells were washed once with MEM. For staining of viral particles mouse hybridoma recognizing the abundant viral protein pp150 (generously provided by W. Britt, Sanchez 2000) used. As a secondary antibody goat anti-mouse Cy3 (Jackson Immuno Research was used. Visualization of bound Fc-proteins was achieved by applying anti-human Alexa488 (Invitrogen). For better orientation, cell nuclei were stained with DAPI. For quantification of PDGFR-alpha-Fc binding to HCMV particles, the grey values of 100 particles per condition were quantified using AxioVision Software (Zeiss).
To test whether pUL74 is an interaction partner of PDGFR-alpha-Fc, the inventors tested whether gO deficient particles can be stained with the soluble molecule similarly to wild type particles (shown in FIG. 8). HCMV wild type or UL74stop particles were incubated with 500 ng/ml PDGFR-alpha-Fc or PDGFRβ-Fc for 2 h before attachment to the cells ice. […]

For “PDGFR-alpha-Fc: recombinant Fc-fusion protein of the PDGFR-alpha extracellular domain, obtained from R&D (6765-PR-050)”, the “inhibition of infection of HFFs at 200 ng/ml” value (HCMV strain TB40/E [1]; 200 ng/ml) was “complete abrogation of infection”, the “inhibitory potential of Fc chimeras on HCMV infection of HFFs” value (HCMV strain TB40/E [1]; increasing concentrations, pre-incubated 2 h) was “blocked infection in a dose dependent fashion” and the “EC50 of inhibition of infection of HFFs” value (HCMV strain TB40/E [1]; virus pre-incubated 2 h) was 0.01 to 0.02 µg/mL. For the same substance, the “extent of reduction of infection of HECs” value (HCMV strain TB40/E [2]) was “incomplete”, the “EC50 of inhibition of infection of HECs” value (HCMV strain TB40/E [2]; virus pre-incubated 2 h) was 0.02 to 0.05 µg/mL and the “infectivity of already adsorbed viruses (reduced to)” value (HCMV TB40E; 200 ng/ml added post adsorption, HFFs) was 50%. For the same substance, the “post adsorption inhibition after addition of PEG” value (HCMV TB40E; 200 ng/ml, 50% PEG 30 sec) was “completely rescued” and the “staining of wild type vs UL74stop particles with anti-human Fc antibody” value [3] was “Only virus particles containing the glycoprotein pUL74 were stained”.
